Experimental data: patent US7026488B2, “Antitumor agents and process for producing the same” (priority 2001, dated 2006)
Entries after “also recorded” stand apart in the source; their conditions may differ.

What was measured:
tumor = settings: administered into the tumor feeding artery, oily formulation; K. Doi et al. 1999; cited from earlier work
Solubility in water = type: physicochemical; settings: for i.v. injection
sarcoma S180 = assay: Antitumor effect in mice bearing solid tumor; type: in vivo, mouse; settings: ddY mice, i.v. 30, 30 and 50 n mole on days 10, 13 and 15 after implantation, FIG. 4
Procedure: (§1) Similar to Experiment 3 above, sarcoma S180 of mice implanted under the dosal skin of ddY mice, and after 10, 13 and 15 days after tumor implantation, PEG-ZnPP at 30 n mole, 30 n mole and 50 n mole (3 times only), respectively, was injected into the tail vein respectively (see also arrow marks in FIG. 4). Control mice received distilled water instead of PEG-ZnPP.

[1] = test system: heme oxygenase in S 180 sarcoma tumor tissue; assay: Inhibition of heme oxygenase in solid tumor model in mouse; type: in vivo; settings: ddY mice, S 180 tumor
Procedure: In male ddY mice with mean body weight of 35 g, S 180 sarcoma cells were implanted in the dorsal skin, and when solid tumor size become 5 mm in cross diameter after about one week, PEG-ZnPP dissolved in distilled water were injected via tail vein (i.v.) at 0.5 mg ZnPP equivalent per Kg body weight. The solid tumors were removed after 24 hr, and heme oxygenase activity was quantified similarly as described in Example 1. Control mouse received distilled water without PEG-ZnPP. The tumor specimens were obtained and treated similarly.

[2] = Change of body weight in mice bearing solid tumor; type: in vivo, mouse; settings: ddY mice bearing S180, during or after i.v. administration, FIG. 5
Procedure: as §1

[3] = target: T1, purified heme oxygenase fraction derived from rat spleen (Rattus norvegicus, UniProt P06762); assay: Inhibitory activity against heme oxygenase (bilirubin formation, Lineweaver-Burk plot); type: biochemical
T1 construct: purified heme oxygenase fraction derived from rat spleen; from tissue; host or cells: rat spleen
T1 sequence (P06762 1-289): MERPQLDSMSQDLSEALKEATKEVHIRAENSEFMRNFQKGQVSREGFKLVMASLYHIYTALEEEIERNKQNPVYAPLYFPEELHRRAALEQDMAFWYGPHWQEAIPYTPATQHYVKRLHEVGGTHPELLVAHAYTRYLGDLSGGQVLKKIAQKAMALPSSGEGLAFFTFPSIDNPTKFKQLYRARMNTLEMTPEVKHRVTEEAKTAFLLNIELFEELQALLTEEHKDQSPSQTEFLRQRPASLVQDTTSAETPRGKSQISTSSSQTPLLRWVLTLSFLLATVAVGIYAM
Procedure: This was examined using purified heme oxygenase fraction derived from rat spleen. It was assayed at 37° C. in the presence of hemin, the substrate of heme oxygenase, cofactor (NADPH, […]), and cytosolic fraction containing bilirubin reductase, in which biliverdin formed by the oxygenase is converted to bilirubin.
Bilirubin was extracted with chloroform and quantified by absorption at 465 nm. By the addition of either PEG-ZnPP, or unmodified ZnPP, or no inhibitor, their effect on heme oxidase was examined, and the Lineweaver-Burk plot of heme oxygenase activity was plotted during the inhibition by PEG-ZnPP. […] Mode of inhibition was competitive, and the value was equivalent to that of unmodified ZnPP.

[4] = test system: Lung adenocarcinoma cell line A549 cells; assay: Oxidative stress in cultured tumor cells (DCDHF fluorescence, flow cytometry); type: cell-based; settings: 5 μM and 10 μM, 8 hrs, compared with no drug, FIG. 3
Procedure: Lung adenocarcinoma cell line A549 cells were plated in plastic dish and after overnight culture, 5 μM and 10 μM of PEG-ZnPP dissolved in distilled water were added to the culture dishes. Then, 8 hrs after cultivation at 37° C., a reagent that quantifies oxidative stress, called dichlorodihydrofluorescein diacetyl ester (DCDHF) was added and allowing cell culture for 30 minutes. Under oxidative stress, this DCDHF will be become oxidized and will fluoresce due to oxystress was generated by formation of fluorescein in cells.
Quantification of fluorescence intensity represents the extent of oxidative stress induced in the cells. Then, cultured cells were trypsinized and recovered cells were subjected to the flow cytometrory analysis and fluorescence cell population was quantified. The results are shown in FIG. 3, where the effect of PEG-ZnPP at 5 μM, 10 μM, is compared with that of no drug.

| Molecule | Antitumor effect in rats (tumor) | Solubility in water (Solubility in water) | Solubility in water (Solubility in water; listed as Unmodified ZnPP) | Tumor growth (tumor size) compared with control group (sarcoma S180) | Activity of heme oxygenase in tumor tissue ([1]; i.v. tail vein 0.5 mg ZnPP equivalent per Kg, tumor removed after 24 hr, control 4.17 ± 1.07 (P < 0.02)) | Effect on intratumor heme oxygenase activity (in words) ([1]; i.v. tail vein, 24 hr) | Body weight change [2] | Ki ([3]; 37° C., hemin substrate, NADPH, cytosolic fraction with bilirubin reductase, read-out: inhibitory constant (Ki) against heme oxygenase) [nM] | Inhibition of heme oxygenase (in words) ([3]; FIG. 2) | Mode of inhibition of heme oxygenase ([3]; Lineweaver-Burk plot, FIG. 2) | intracellular oxidative state (DCDHF fluorescence) [4] |
| --- | --- | --- | --- | --- | --- | --- | --- | --- | --- | --- | --- |
| C=CC1=C(C)c2cc3[n-]c(cc4nc(cc5[n-]c(cc1n2)c(C)c5C=C)C(C)=C4CCC(=O)O)c(CCC(=O)O)c3C.[Zn+2] [ZnPP, zinc protoporphyrin] | confirmed antitumor effect in rats | almost insoluble in water | could not be administered i.v. because of its difficulty in solubility; also recorded: Impossible to solubilize |  |  |  |  |  |  |  |  |
| Polyethylene Glycol Conjugated ZnPP [PEG-ZnPP] |  |  |  | remarkable suppression of tumor growth | 2.30 ± 0.54 n mol bilirubin/mg protein/hr | significant reduction of the heme oxygenase activity | no remarkable body weight loss | 130 | inhibits the heme oxygenase in a dose dependent manner | competitive | higher intracellular oxidative state in the dose dependent manner |
